What was measured:
[1] = Biodistribution of DHA after periorbital skin administration (Example 4); type: in vivo, cynomolgus monkeys; conditions: for concentration at 0.5 h / concentration at 24 h / concentration at 3 h / concentration at 6 h: cynomolgus monkey, topical; for concentration at 0.5 h: 6567.89 μg/left eye; for concentration at 24 h: 6746.51 μg/left eye; for concentration at 3 h: 6768.26 μg/left eye; for concentration at 6 h: 7017.66 μg/left eye
Description: (§1) This is supported by results obtained with a markedly different compound docosahexaenoic acid (DHA), which are shown in Table 2. An oil solution comprising 14.85 mg/mL β-Carotene+198.02 mg/ml DHA in linoleic acid was administered to one eye (OD) by circumferential topical application to the periorbital skin that surrounds the anterior portion of the globe. Blood samples (1 mL) and were collected at 0, 0.5, 2, 6, and 24 hours after a single administration to the periorbital skin of the right eye (OD) At each of the above pre-designated time points, one animal was euthanized after blood collection and selected eye tissue samples were collected from both eyes. The following representative tissues were collected; upper eyelid, cornea, retina, and vitreous humor. DHA concentrations in the samples were determined by the LC-MS/MS method. The DHA was administered via NIODP at the dose of 6775.1±92.5 μg per eye (mean±SEM), to the left eye of monkeys in the pharmacokinetics and biodistribution study. Again, for convenience of sample processing, only upper eyelids were collected. Substantial quantities of DHA (>10 μg/g) remained in the upper eyelid/periorbital region, retina, and cornea, at all tested time points of 0.5, 3, 6 and 24-hour post dosing. […] Compared to the BLQ baseline, plasma concentrations of DHA were between 1.2 and 3.1 μg/ml, equivalent to […] (MW 328.5) via NIODP. The plasma Cmax was at 0.5 hours post-dose.

[2] = Biodistribution of Beta-Carotene after periorbital skin administration (Example 4); type: in vivo, cynomolgus monkeys; conditions: for concentration at 3 h / concentration at 0.5 h / concentration at 6 h / concentration at 24 h: cynomolgus monkey, topical; for concentration at 3 h: 507.6 μg/left eye
Description: [The procedure below names another target; the source lists this target under the same test.] as §1
Thus, not all compounds are readily uptaken and distributed to the posterior area of the eye.

[3] = 0.5 h, 6567.89 μg/left eye periorbital skin
[4] = 3 h, 6768.26 μg/left eye periorbital skin
[5] = 6 h, 7017.66 μg/left eye periorbital skin
[6] = 24 h, 6746.51 μg/left eye periorbital skin
[7] = 0.5 h, 492.59 μg/left eye periorbital skin
[8] = 3 h, 507.60 μg/left eye periorbital skin
[9] = 6 h, 526.32 μg/left eye periorbital skin
[10] = 24 h, 505.99 μg/left eye periorbital skin

CC/C=C\C/C=C\C/C=C\C/C=C\C/C=C\C/C=C\CCC(=O)O [DHA, docosahexaenoic acid]
maximum in retina ([1]; 0.5-hour post dosing): 111 µg/g
% of administered dose, Left cornea [1, 3]: 0.03%
% of administered dose, Left retina [1, 3]: 0.04%
% of administered dose, Left upper eyelid [1, 3]: 0.42%
% of administered dose, Left vitreous humor [1, 3]: 0.00%
Drug Concentration in Plasma ([1]; 0.5 h, 6567.89 μg/left eye periorbital skin, animal 101): 2160 ng/mL
% of administered dose, Left cornea [1, 4]: 0.01%
% of administered dose, Left retina [1, 4]: 0.04%
% of administered dose, Left upper eyelid [1, 4]: 0.38%
% of administered dose, Left vitreous humor [1, 4]: 0.00%
Drug Concentration in Plasma ([1]; 3 h, 6768.26 μg/left eye periorbital skin, animal 102): 3130 ng/mL
% of administered dose, Left cornea [1, 5]: 0.01%
% of administered dose, Left retina [1, 5]: 0.01%
% of administered dose, Left upper eyelid [1, 5]: 0.01%
% of administered dose, Left vitreous humor [1, 5]: 0.00%
Drug Concentration in Plasma ([1]; 6 h, 7017.66 μg/left eye periorbital skin, animal 103): 2110 ng/mL
% of administered dose, Left cornea [1, 6]: 0.02%
% of administered dose, Left retina [1, 6]: 0.03%
% of administered dose, Left upper eyelid [1, 6]: 0.02%
% of administered dose, Left vitreous humor [1, 6]: 0.00%
Drug Concentration in Plasma ([1]; 24 h, 6746.51 μg/left eye periorbital skin, animal 104): 1150 ng/mL
DHA in vitreous humor ([1]; LLOQ 0.5 μg/ml): below the limit of quantification (BLQ)
DHA in upper eyelid/periorbital region, retina and cornea ([1]; all tested time points of 0.5, 3, 6 and 24-hour, NIODP 6775.1±92.5 μg per eye): > 10 µg/g
concentration at 0.5 h ([1]; left cornea, 0.5 h, 6567.89 μg/left eye periorbital skin, read-out: Drug Concentration in Tissue, Left cornea): 66300 ng/g
concentration at 24 h ([1]; left cornea, 24 h, 6746.51 μg/left eye periorbital skin, read-out: Drug Concentration in Tissue, Left cornea): 25900 ng/g
concentration at 3 h ([1]; left cornea, 3 h, 6768.26 μg/left eye periorbital skin, read-out: Drug Concentration in Tissue, Left cornea): 21600 ng/g
concentration at 6 h ([1]; left cornea, 6 h, 7017.66 μg/left eye periorbital skin, read-out: Drug Concentration in Tissue, Left cornea): 22300 ng/g
concentration at 0.5 h ([1]; left retina, 0.5 h, 6567.89 μg/left eye periorbital skin, read-out: Drug Concentration in Tissue, Left retina): 111000 ng/g
concentration at 24 h ([1]; left retina, 24 h, 6746.51 μg/left eye periorbital skin, read-out: Drug Concentration in Tissue, Left retina): 47300 ng/g
concentration at 3 h ([1]; left retina, 3 h, 6768.26 μg/left eye periorbital skin, read-out: Drug Concentration in Tissue, Left retina): 66700 ng/g
concentration at 6 h ([1]; left retina, 6 h, 7017.66 μg/left eye periorbital skin, read-out: Drug Concentration in Tissue, Left retina): 78600 ng/g
concentration at 0.5 h ([1]; left upper eyelid, 0.5 h, 6567.89 μg/left eye periorbital skin, read-out: Drug Concentration in Tissue, Left upper eyelid): 381000 ng/g
concentration at 24 h ([1]; left upper eyelid, 24 h, 6746.51 μg/left eye periorbital skin, read-out: Drug Concentration in Tissue, Left upper eyelid): 16200 ng/g
concentration at 3 h ([1]; left upper eyelid, 3 h, 6768.26 μg/left eye periorbital skin, read-out: Drug Concentration in Tissue, Left upper eyelid): 420000 ng/g
concentration at 6 h ([1]; left upper eyelid, 6 h, 7017.66 μg/left eye periorbital skin, read-out: Drug Concentration in Tissue, Left upper eyelid): 10700 ng/g
concentration at 0.5 h ([1]; left vitreous humor, 0.5 h, 6567.89 μg/left eye periorbital skin, BLQ given 0, read-out: Drug Concentration in Tissue, Left vitreous humor): 0 ng/g
concentration at 24 h ([1]; left vitreous humor, 24 h, 6746.51 μg/left eye periorbital skin, BLQ given 0, read-out: Drug Concentration in Tissue, Left vitreous humor): 0 ng/g
concentration at 3 h ([1]; left vitreous humor, 3 h, 6768.26 μg/left eye periorbital skin, BLQ given 0, read-out: Drug Concentration in Tissue, Left vitreous humor): 0 ng/g
concentration at 6 h ([1]; left vitreous humor, 6 h, 7017.66 μg/left eye periorbital skin, BLQ given 0, read-out: Drug Concentration in Tissue, Left vitreous humor): 0 ng/g
concentration at 0.5 h ([1]; plasma, 0.5 h, 6567.89 μg/left eye periorbital skin, animal 101, read-out: Drug Concentration in Plasma): 2200 ng/mL
concentration at 24 h ([1]; plasma, 24 h, 6746.51 μg/left eye periorbital skin, animal 104, read-out: Drug Concentration in Plasma): 1200 ng/mL
concentration at 3 h ([1]; plasma, 3 h, 6768.26 μg/left eye periorbital skin, animal 102, read-out: Drug Concentration in Plasma): 3100 ng/mL
concentration at 6 h ([1]; plasma, 6 h, 7017.66 μg/left eye periorbital skin, animal 103, read-out: Drug Concentration in Plasma): 2100 ng/mL
dose gradient via NIODP ([1]; periorbital skin): eyelid≈retina>cornea>>vitreous humor=0

CC1=C(/C=C/C(C)=C/C=C/C(C)=C/C=C/C=C(C)/C=C/C=C(C)/C=C/C2=C(C)CCCC2(C)C)C(C)(C)CCC1 [Beta-Carotene, β-Carotene]
% of administered dose, Left cornea [2, 7]: 0.000%
% of administered dose, Left retina [2, 7]: 0.000%
% of administered dose, Left upper eyelid [2, 7]: 0.19%
% of administered dose, Left vitreous humor [2, 7]: 0.000%
Drug Concentration in Plasma ([2]; 0.5 h, 492.59 μg/left eye periorbital skin, animal 101): BLQ
% of administered dose, Left cornea [2, 8]: 0.000%
% of administered dose, Left retina [2, 8]: 0.000%
% of administered dose, Left upper eyelid [2, 8]: 0.44%
% of administered dose, Left vitreous humor [2, 8]: 0.000%
Drug Concentration in Plasma ([2]; 3 h, 507.60 μg/left eye periorbital skin, animal 102): BLQ
% of administered dose, Left cornea [2, 9]: 0.000%
% of administered dose, Left retina [2, 9]: 0.000%
% of administered dose, Left upper eyelid [2, 9]: 0.000%
% of administered dose, Left vitreous humor [2, 9]: 0.000%
Drug Concentration in Plasma ([2]; 6 h, 526.32 μg/left eye periorbital skin, animal 103): BLQ
% of administered dose, Left cornea [2, 10]: 0.000%
% of administered dose, Left retina [2, 10]: 0.000%
% of administered dose, Left upper eyelid [2, 10]: 0.000%
% of administered dose, Left vitreous humor [2, 10]: 0.000%
Drug Concentration in Plasma ([2]; 24 h, 505.99 μg/left eye periorbital skin, animal 104): BLQ
uptake and biodistribution following periorbital administration ([2]; compared with DHA in the same formulation): not as readily uptaken and biodistributed
concentration at 3 h ([2]; cornea, 3 h, 507.60 μg/left eye periorbital skin, read-out: Drug Concentration in Tissue, Cornea): 0 ng/g
concentration at 0.5 h ([2]; cornea, 0.5 h, 492.59 μg/left eye periorbital skin, read-out: Drug Concentration in Tissue, Cornea): 0 ng/g
concentration at 6 h ([2]; cornea, 6 h, 526.32 μg/left eye periorbital skin, read-out: Drug Concentration in Tissue, Cornea): 0 ng/g
concentration at 24 h ([2]; cornea, 24 h, 505.99 μg/left eye periorbital skin, read-out: Drug Concentration in Tissue, Cornea): 0 ng/g
concentration at 3 h ([2]; retina, 3 h, 507.60 μg/left eye periorbital skin, read-out: Drug Concentration in Tissue, Retina): 0 ng/g
concentration at 0.5 h ([2]; retina, 0.5 h, 492.59 μg/left eye periorbital skin, read-out: Drug Concentration in Tissue, Retina): 0 ng/g
concentration at 6 h ([2]; retina, 6 h, 526.32 μg/left eye periorbital skin, read-out: Drug Concentration in Tissue, Retina): 0 ng/g
concentration at 24 h ([2]; retina, 24 h, 505.99 μg/left eye periorbital skin, read-out: Drug Concentration in Tissue, Retina): 0 ng/g
concentration at 3 h ([2]; upper eyelid, 3 h, 507.60 μg/left eye periorbital skin, read-out: Drug Concentration in Tissue, Upper eyelid): 36000 ng/g
concentration at 0.5 h ([2]; upper eyelid, 0.5 h, 492.59 μg/left eye periorbital skin, read-out: Drug Concentration in Tissue, Upper eyelid): 12600 ng/g
concentration at 6 h ([2]; upper eyelid, 6 h, 526.32 μg/left eye periorbital skin, read-out: Drug Concentration in Tissue, Upper eyelid): 0 ng/g
concentration at 24 h ([2]; upper eyelid, 24 h, 505.99 μg/left eye periorbital skin, read-out: Drug Concentration in Tissue, Upper eyelid): 0 ng/g
concentration at 3 h ([2]; vitreous humor, 3 h, 507.60 μg/left eye periorbital skin, read-out: Drug Concentration in Tissue, Vitreous humor): 0 ng/g
concentration at 0.5 h ([2]; vitreous humor, 0.5 h, 492.59 μg/left eye periorbital skin, read-out: Drug Concentration in Tissue, Vitreous humor): 0 ng/g
concentration at 6 h ([2]; vitreous humor, 6 h, 526.32 μg/left eye periorbital skin, read-out: Drug Concentration in Tissue, Vitreous humor): 0 ng/g
concentration at 24 h ([2]; vitreous humor, 24 h, 505.99 μg/left eye periorbital skin, read-out: Drug Concentration in Tissue, Vitreous humor): 0 ng/g

Source: patent US20240041832A1, “METHODS AND COMPOSITIONS FOR TREATING EYE DISEASES” (JENIVISION INC., priority 2021, published 2024)
